Data from paper PMC9186362, “Design and biological evaluation of substituted 5,7-dihydro-6H-indolo[2,3-c]quinolin-6-one as novel selective Haspin inhibitors” (Journal of Enzyme Inhibition and Medicinal Chemistry, 2022).

Key:
Assay in all cases: SelectScreen ZLYTE
Format in all cases: biochemical
ABL1 = target: T1, ABL1 (Homo sapiens, UniProt P00519); conditions: ATP Km, read-out: Percentage of inhibition
T1 construct: purchased Life Technologies (SelectScreen Whole Panel service)
Method in brief: (§1)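 Here 1 μM of inhibitor is profiled against a large kinase collection, and the extent of enzyme inhibition is stated as a percentage.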

ABL1 G250E = target: T2, ABL1 G250E (Homo sapiens, UniProt P00519, G250E); conditions: ATP Km, read-out: Percentage of inhibition
T2 construct: purchased Life Technologies (SelectScreen Whole Panel service)
Method in brief: as §1

AKT1 (PKB alpha) = AKT1 (PKB alpha) (Homo sapiens, UniProt P31749); conditions: ATP Km, read-out: Percentage of inhibition
AKT1 (PKB alpha), sequence (P31749 whole entry): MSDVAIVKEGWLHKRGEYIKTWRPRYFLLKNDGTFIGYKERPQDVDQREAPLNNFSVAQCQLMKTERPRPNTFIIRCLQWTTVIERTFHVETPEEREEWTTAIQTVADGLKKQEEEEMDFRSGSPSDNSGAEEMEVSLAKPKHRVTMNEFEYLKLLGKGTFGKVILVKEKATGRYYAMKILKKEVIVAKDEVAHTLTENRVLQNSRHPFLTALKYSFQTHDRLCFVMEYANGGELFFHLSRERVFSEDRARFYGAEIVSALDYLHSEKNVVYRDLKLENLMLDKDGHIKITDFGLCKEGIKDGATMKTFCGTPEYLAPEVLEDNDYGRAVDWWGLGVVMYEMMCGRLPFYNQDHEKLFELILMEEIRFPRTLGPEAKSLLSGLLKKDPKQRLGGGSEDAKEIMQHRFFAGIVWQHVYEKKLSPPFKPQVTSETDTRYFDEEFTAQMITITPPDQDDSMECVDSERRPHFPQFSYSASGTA
Method in brief: as §1

BLK = target: T3, BLK (Homo sapiens, UniProt P51451); conditions: ATP Km, read-out: Percentage of inhibition
T3 construct: purchased Life Technologies (SelectScreen service)
Method in brief: as §1

CLK3 = CLK3 (Homo sapiens, UniProt P49761); conditions: ATP Km, read-out: Percentage of inhibition
CLK3, sequence (P49761 whole entry): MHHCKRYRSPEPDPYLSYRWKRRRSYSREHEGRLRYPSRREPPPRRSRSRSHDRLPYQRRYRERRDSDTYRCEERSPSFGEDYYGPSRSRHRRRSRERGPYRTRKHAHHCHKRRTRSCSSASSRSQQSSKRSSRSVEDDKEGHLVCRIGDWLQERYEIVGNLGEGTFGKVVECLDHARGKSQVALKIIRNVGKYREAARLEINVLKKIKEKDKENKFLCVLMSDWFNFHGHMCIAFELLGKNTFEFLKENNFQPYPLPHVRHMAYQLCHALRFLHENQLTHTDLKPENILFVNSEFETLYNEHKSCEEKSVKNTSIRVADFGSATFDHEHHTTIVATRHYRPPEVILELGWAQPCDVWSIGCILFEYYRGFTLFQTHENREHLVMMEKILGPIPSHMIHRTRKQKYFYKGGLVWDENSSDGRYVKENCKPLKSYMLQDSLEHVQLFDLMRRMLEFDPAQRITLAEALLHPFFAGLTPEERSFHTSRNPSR
Method in brief: as §1

CSK = target: T4, CSK (Homo sapiens, UniProt P41240); conditions: ATP Km, read-out: Percentage of inhibition
T4 construct: purchased Life Technologies (SelectScreen)
Method in brief: as §1

CSNK2A2 (CK2 alpha 2) = target: T5, CSNK2A2 (CK2 alpha 2) (Homo sapiens, UniProt P19784); conditions: ATP Km, read-out: Percentage of inhibition
T5 construct: purchased Life Technologies (SelectScreen Whole Panel service)
T5 sequence (P19784 whole entry): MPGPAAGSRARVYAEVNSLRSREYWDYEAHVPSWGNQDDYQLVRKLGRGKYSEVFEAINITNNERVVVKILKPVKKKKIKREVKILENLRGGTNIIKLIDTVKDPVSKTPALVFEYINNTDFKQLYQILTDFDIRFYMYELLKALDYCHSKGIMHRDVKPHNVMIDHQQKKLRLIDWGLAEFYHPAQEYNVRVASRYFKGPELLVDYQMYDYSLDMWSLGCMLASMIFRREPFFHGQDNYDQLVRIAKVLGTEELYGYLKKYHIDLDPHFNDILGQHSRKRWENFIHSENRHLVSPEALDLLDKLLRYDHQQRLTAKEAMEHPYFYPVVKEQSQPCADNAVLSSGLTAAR
Method in brief: as §1

DAPK3 (ZIPK) = target: T6, DAPK3 (ZIPK) (Homo sapiens, UniProt O43293); conditions: ATP Km, read-out: Percentage of inhibition
T6 construct: purchased Life Technologies (SelectScreen Whole Panel service)
Method in brief: as §1

DYRK1B = target: T7, DYRK1B (Homo sapiens, UniProt Q9Y463); conditions: ATP Km, read-out: Percentage of inhibition
T7 construct: purchased Life Technologies
Method in brief: as §1

EPHA1 = target: T8, EPHA1 (Homo sapiens, UniProt P21709); conditions: ATP Km, read-out: Percentage of inhibition
T8 construct: purchased Life Technologies
Method in brief: as §1

EPHB1 = target: T9, EPHB1 (Homo sapiens, UniProt P54762); conditions: ATP Km, read-out: Percentage of inhibition
T9 construct: purchased Life Technologies (SelectScreen Whole Panel)
Method in brief: as §1

FES (FPS) = target: T10, FES (FPS) (Homo sapiens, UniProt P07332); conditions: ATP Km, read-out: Percentage of inhibition
T10 construct: purchased Life Technologies (SelectScreen service)
Method in brief: as §1

FGFR1 = target: T11, FGFR1 (Homo sapiens, UniProt P11362); conditions: ATP Km, read-out: Percentage of inhibition
T11 construct: purchased Life Technologies
Method in brief: as §1

FGFR3 = target: T12, FGFR3 (Homo sapiens, UniProt P22607); conditions: ATP Km, read-out: Percentage of inhibition
T12 construct: purchased Life Technologies
Method in brief: as §1

FGFR3 V555M = target: T13, FGFR3 V555M (Homo sapiens, UniProt P22607, V555M); conditions: ATP Km, read-out: Percentage of inhibition
T13 construct: purchased Life Technologies (SelectScreen Whole Panel service)
Method in brief: as §1

GSK3A (GSK3 alpha) = target: T14, GSK3A (GSK3 alpha) (Homo sapiens, UniProt P49840); conditions: ATP Km, read-out: Percentage of inhibition
T14 construct: purchased Life Technologies (SelectScreen service)
Method in brief: as §1

GSK3B (GSK3 beta) = target: T15, GSK3B (GSK3 beta) (Homo sapiens, UniProt P49841); conditions: ATP Km, read-out: Percentage of inhibition
T15 construct: purchased Life Technologies (SelectScreen service)
Method in brief: as §1

IKBKB (IKK beta) = target: T16, IKBKB (IKK beta) (Homo sapiens, UniProt O14920); conditions: ATP Km, read-out: Percentage of inhibition
T16 construct: purchased Life Technologies (SelectScreen Whole Panel)
Method in brief: as §1

ITK = target: T17, ITK (Homo sapiens, UniProt Q08881); conditions: ATP Km, read-out: Percentage of inhibition
T17 construct: purchased Life Technologies (SelectScreen Whole Panel)
Method in brief: as §1

JAK1 = target: T18, JAK1 (Homo sapiens, UniProt P23458); conditions: ATP Km, read-out: Percentage of inhibition
T18 construct: purchased Life Technologies (SelectScreen service)
Method in brief: as §1

KIT = KIT (Homo sapiens, UniProt P10721); conditions: ATP Km, read-out: Percentage of inhibition
Method in brief: as §1

KIT T670I = target: T19, KIT T670I (Homo sapiens, UniProt P10721, T670I); conditions: ATP Km, read-out: Percentage of inhibition
T19 construct: purchased Life Technologies
Method in brief: as §1

MAP2K1 (MEK1) = target: T20, MAP2K1 (MEK1) (Homo sapiens, UniProt Q02750); conditions: ATP 100 µM, read-out: Percentage of inhibition
T20 construct: purchased Life Technologies (SelectScreen Whole Panel)
Method in brief: as §1

MARK1 (MARK) = target: T21, MARK1 (MARK) (Homo sapiens, UniProt Q9P0L2); conditions: ATP Km, read-out: Percentage of inhibition
T21 construct: purchased Life Technologies (SelectScreen)
Method in brief: as §1

MET (cMet) = MET (cMet) (Homo sapiens, UniProt P08581); conditions: ATP Km, read-out: Percentage of inhibition
Method in brief: as §1

MET M1250T = target: T22, MET M1250T (Homo sapiens, UniProt P08581, M1250T); conditions: ATP Km, read-out: Percentage of inhibition
T22 construct: purchased Life Technologies (SelectScreen Whole Panel service)
T22 sequence (P08581 25-1390 M1250T): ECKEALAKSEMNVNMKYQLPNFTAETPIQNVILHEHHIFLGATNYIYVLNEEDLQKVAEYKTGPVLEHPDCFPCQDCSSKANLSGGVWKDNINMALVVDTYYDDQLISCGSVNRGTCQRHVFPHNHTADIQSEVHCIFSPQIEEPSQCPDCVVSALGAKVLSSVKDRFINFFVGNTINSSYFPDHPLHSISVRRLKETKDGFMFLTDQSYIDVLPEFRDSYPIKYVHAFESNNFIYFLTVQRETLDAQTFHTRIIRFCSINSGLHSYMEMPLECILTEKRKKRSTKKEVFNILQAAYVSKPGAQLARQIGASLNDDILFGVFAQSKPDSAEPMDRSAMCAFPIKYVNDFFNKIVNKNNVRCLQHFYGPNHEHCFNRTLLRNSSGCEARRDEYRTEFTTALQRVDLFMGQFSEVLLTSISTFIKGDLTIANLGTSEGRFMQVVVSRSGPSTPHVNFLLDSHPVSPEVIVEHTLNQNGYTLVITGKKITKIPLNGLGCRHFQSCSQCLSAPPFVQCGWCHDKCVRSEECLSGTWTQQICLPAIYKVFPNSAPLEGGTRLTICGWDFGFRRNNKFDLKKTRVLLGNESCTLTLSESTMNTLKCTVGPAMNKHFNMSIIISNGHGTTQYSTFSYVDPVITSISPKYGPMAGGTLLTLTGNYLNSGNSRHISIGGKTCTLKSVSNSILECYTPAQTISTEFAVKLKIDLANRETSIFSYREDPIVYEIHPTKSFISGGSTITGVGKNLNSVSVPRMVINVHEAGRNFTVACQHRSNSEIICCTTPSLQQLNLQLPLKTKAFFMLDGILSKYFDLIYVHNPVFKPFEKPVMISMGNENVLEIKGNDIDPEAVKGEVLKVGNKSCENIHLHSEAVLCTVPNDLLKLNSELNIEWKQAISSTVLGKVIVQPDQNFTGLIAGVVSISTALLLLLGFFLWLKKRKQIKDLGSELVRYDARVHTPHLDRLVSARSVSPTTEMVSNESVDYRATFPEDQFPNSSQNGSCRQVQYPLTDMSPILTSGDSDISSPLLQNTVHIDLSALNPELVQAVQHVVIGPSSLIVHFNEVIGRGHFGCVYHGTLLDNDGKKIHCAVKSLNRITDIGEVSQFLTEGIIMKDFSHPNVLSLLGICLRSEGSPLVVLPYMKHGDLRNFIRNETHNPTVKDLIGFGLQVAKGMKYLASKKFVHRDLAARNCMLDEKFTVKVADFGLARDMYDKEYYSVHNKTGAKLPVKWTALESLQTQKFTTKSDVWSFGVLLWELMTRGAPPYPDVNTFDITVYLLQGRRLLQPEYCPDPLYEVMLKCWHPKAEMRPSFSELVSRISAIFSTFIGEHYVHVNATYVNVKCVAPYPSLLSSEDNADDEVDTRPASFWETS
Method in brief: as §1

NTRK2 (TRKB) = target: T23, NTRK2 (TRKB) (Homo sapiens, UniProt Q16620); conditions: ATP Km, read-out: Percentage of inhibition
T23 construct: purchased Life Technologies (SelectScreen service)
Method in brief: as §1

PRKACA (PKA) = target: T24, PRKACA (PKA) (Homo sapiens, UniProt P17612); conditions: ATP Km, read-out: Percentage of inhibition
T24 construct: purchased Life Technologies (SelectScreen)
Method in brief: as §1

PRKCB2 (PKC beta II) = PRKCB2 (PKC beta II) (Homo sapiens, UniProt P05771); conditions: ATP Km, read-out: Percentage of inhibition
Method in brief: as §1

PRKCD (PKC delta) = PRKCD (PKC delta) (Homo sapiens, UniProt Q05655); conditions: ATP Km, read-out: Percentage of inhibition
PRKCD (PKC delta), sequence (Q05655 whole entry): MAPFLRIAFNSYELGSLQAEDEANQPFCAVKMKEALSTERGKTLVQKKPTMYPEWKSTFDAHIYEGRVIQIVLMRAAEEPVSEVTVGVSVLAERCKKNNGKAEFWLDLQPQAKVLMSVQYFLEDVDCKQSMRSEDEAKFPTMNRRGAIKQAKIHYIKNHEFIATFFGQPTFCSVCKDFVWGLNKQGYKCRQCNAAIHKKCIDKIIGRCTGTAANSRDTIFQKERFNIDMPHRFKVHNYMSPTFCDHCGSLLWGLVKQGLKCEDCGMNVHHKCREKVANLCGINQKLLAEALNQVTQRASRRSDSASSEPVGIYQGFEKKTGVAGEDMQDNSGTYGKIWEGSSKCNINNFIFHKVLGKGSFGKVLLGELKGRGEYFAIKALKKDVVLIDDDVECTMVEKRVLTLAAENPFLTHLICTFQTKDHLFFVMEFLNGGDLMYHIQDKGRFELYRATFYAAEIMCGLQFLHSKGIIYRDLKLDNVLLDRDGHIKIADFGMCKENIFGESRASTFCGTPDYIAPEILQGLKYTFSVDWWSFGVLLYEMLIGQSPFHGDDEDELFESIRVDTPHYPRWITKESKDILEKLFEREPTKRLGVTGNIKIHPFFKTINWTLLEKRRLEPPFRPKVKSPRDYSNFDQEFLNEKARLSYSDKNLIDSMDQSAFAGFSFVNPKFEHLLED
Method in brief: as §1

PRKCH (PKC eta) = PRKCH (PKC eta) (Homo sapiens, UniProt P24723); conditions: ATP Km, read-out: Percentage of inhibition
Method in brief: as §1

PRKCI (PKC iota) = PRKCI (PKC iota) (Homo sapiens, UniProt P41743); conditions: ATP Km, read-out: Percentage of inhibition
Method in brief: as §1

RAF1 (cRAF) Y340D Y341D = target: T25, RAF1 (cRAF) Y340D Y341D (Homo sapiens, UniProt P04049, Y340D/Y341D); conditions: ATP 100 µM, read-out: Percentage of inhibition
T25 construct: purchased Life Technologies
T25 sequence (P04049 whole entry Y340D/Y341D): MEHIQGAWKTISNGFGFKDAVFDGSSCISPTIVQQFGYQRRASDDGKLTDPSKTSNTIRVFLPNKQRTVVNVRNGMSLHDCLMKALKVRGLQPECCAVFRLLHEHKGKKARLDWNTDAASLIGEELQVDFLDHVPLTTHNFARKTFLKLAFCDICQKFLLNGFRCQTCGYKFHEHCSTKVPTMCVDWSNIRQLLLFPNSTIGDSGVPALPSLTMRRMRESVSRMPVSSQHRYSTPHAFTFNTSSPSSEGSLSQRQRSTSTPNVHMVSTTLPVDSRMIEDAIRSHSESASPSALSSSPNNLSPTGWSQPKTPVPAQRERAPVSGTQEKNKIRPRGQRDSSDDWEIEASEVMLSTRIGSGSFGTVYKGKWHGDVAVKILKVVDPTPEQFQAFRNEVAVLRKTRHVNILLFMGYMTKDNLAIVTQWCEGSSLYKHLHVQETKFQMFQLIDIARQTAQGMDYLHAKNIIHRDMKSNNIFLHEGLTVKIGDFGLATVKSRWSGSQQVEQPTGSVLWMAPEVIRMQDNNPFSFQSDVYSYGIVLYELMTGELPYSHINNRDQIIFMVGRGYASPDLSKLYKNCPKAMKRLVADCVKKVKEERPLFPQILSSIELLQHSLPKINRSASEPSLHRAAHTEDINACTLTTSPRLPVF
Method in brief: as §1

ROS1 = target: T26, ROS1 (Homo sapiens, UniProt P08922); conditions: ATP Km, read-out: Percentage of inhibition
T26 construct: purchased Life Technologies
Method in brief: as §1

RPS6KA4 (MSK2) = target: T27, RPS6KA4 (MSK2) (Homo sapiens, UniProt O75676); conditions: ATP Km, read-out: Percentage of inhibition
T27 construct: purchased Life Technologies
T27 sequence (O75676 whole entry): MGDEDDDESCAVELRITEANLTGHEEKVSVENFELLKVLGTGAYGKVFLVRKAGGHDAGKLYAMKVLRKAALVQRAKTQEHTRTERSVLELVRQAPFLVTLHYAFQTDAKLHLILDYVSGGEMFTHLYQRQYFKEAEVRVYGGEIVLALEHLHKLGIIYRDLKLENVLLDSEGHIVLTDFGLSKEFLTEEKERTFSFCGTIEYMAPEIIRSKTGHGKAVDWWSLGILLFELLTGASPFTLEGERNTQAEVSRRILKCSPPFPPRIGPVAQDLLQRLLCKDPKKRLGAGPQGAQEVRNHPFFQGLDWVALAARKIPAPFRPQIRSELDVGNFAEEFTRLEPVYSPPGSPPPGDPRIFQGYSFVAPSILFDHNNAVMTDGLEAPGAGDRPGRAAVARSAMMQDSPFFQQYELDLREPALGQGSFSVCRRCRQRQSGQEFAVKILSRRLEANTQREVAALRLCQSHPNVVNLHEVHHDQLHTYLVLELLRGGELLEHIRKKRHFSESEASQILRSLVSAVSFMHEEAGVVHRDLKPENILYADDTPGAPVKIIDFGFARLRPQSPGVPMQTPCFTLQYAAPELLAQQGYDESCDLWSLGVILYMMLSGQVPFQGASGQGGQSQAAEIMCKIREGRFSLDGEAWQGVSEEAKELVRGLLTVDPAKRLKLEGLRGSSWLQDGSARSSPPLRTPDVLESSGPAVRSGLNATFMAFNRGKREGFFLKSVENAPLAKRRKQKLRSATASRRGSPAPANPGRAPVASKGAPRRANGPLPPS
Method in brief: as §1

RPS6KA6 (RSK4) = target: T28, RPS6KA6 (RSK4) (Homo sapiens, UniProt Q9UK32); conditions: ATP Km, read-out: Percentage of inhibition
T28 construct: purchased Life Technologies
Method in brief: as §1

SBK1 = target: T29, SBK1 (Homo sapiens, UniProt Q52WX2); conditions: ATP Km, read-out: Percentage of inhibition
T29 construct: purchased Life Technologies (SelectScreen Whole Panel)
Method in brief: as §1

SYK = target: T30, SYK (Homo sapiens, UniProt P43405); conditions: ATP Km, read-out: Percentage of inhibition
T30 construct: purchased Life Technologies (SelectScreen service)
Method in brief: as §1

TXK = TXK (Homo sapiens, UniProt P42681); conditions: ATP Km, read-out: Percentage of inhibition
Method in brief: as §1

`COc1ccc2[nH]c3c(=O)[nH]c4ccc(O)cc4c3c2c1` [Compound 55, 2-Hydroxy-10-methoxy-5,7-dihydro-6H-indolo[2,3-c]quinolin-6-one] gave an inhibition at 1 µM (ABL1) of 43%, an inhibition at 1 µM (ABL1 G250E) of 48% and an inhibition at 1 µM (AKT1 (PKB alpha)) of 6%. It also gave an inhibition at 1 µM (BLK) of 86%, an inhibition at 1 µM (CLK3) of 57% and an inhibition at 1 µM (CSK) of 9%. For the same compound, the inhibition at 1 µM (CSNK2A2 (CK2 alpha 2)) was 17%, the inhibition at 1 µM (DAPK3 (ZIPK)) was 44% and the inhibition at 1 µM (DYRK1B) was 96%. For the same compound, the inhibition at 1 µM (EPHA1) was 33%, the inhibition at 1 µM (EPHB1) was 49% and the inhibition at 1 µM (FES (FPS)) was 25%. It also gave an inhibition at 1 µM (FGFR1) of 38%, an inhibition at 1 µM (FGFR3) of 3% and an inhibition at 1 µM (FGFR3 V555M) of 46%. For the same compound, the inhibition at 1 µM (GSK3A (GSK3 alpha)) was 82%, the inhibition at 1 µM (GSK3B (GSK3 beta)) was 81% and the inhibition at 1 µM (IKBKB (IKK beta)) was 55%. For the same compound, the inhibition at 1 µM (ITK) was 49%, the inhibition at 1 µM (JAK1) was 23% and the inhibition at 1 µM (KIT) was 6%. The inhibition at 1 µM (KIT T670I) was 4%, the inhibition at 1 µM (MAP2K1 (MEK1)) was 98% and the inhibition at 1 µM (MARK1 (MARK)) was 9%. It also gave an inhibition at 1 µM (MET (cMet)) of 7%, an inhibition at 1 µM (MET M1250T) of 12% and an inhibition at 1 µM (NTRK2 (TRKB)) of 80%. For the same compound, the inhibition at 1 µM (PRKACA (PKA)) was 8%, the inhibition at 1 µM (PRKCB2 (PKC beta II)) was 13% and the inhibition at 1 µM (PRKCD (PKC delta)) was 7%. It also gave an inhibition at 1 µM (PRKCH (PKC eta)) of 15%, an inhibition at 1 µM (PRKCI (PKC iota)) of 6% and an inhibition at 1 µM (RAF1 (cRAF) Y340D Y341D) of 94%. For the same compound, the inhibition at 1 µM (ROS1) was 29%, the inhibition at 1 µM (RPS6KA4 (MSK2)) was 39% and the inhibition at 1 µM (RPS6KA6 (RSK4)) was 93%. It also gave an inhibition at 1 µM (SBK1) of 1%, an inhibition at 1 µM (SYK) of 82% and an inhibition at 1 µM (TXK) of 22%.
